# Results taken from the supplement of paper PMC10307832.
# How the values were obtained:
# Experiment in all cases: relative viability (nuclei count vs DMSO), 5 days (fraction); higher = more cells survive
# [1] = test system: BEN
# Method in brief: (§1)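 Values are medians from duplicate plates. Each reflects relative viability, defined as the nuclei count of treated wells over that of vehicle wells. Lung cancer cell lines in 1536-well plates were pin-tool dosed one day after seeding with one drug alone or with a fixed anchor-drug dose plus five library-drug doses (not always all listed) in √10 steps, then fixed, stained and imaged at 4× after 5 days.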
# [2] = test system: EKVX
# Method in brief: as §1
# [3] = test system: NCI-H1792
# Method in brief: as §1
# [4] = test system: LCLC-97TM1
# Method in brief: as §1
# [5] = test system: LOU-NH91
# Method in brief: as §1
# [6] = test system: NCI-H727
# Method in brief: as §1
# [7] = test system: SK-MES-1
# Method in brief: as §1
# [8] = test system: HCC-827
# Method in brief: as §1
# [9] = test system: RERF-LC-KJ
# Method in brief: as §1
# [10] = test system: LK-2
# Method in brief: as §1
# [11] = test system: EMC-BAC-2
# Method in brief: as §1
# [12] = test system: COR-L 105
# Method in brief: as §1
# [13] = test system: SW 900
# Method in brief: as §1
# [14] = test system: NCI-H358
# Method in brief: as §1
# [15] = test system: NCI-H1944
# Method in brief: as §1
# [16] = test system: NCI-H2126
# Method in brief: as §1
# [17] = test system: EPLC-272H
# Method in brief: as §1
# [18] = test system: NCI-H1650
# Method in brief: as §1
# [19] = test system: NCI-H2087
# Method in brief: as §1
# [20] = test system: NCI-H1734
# Method in brief: as §1
# [21] = test system: SW 1573
# Method in brief: as §1
# [22] = test system: NCI-H522
# Method in brief: as §1
# [23] = test system: HCC-78
# Method in brief: as §1
# [24] = test system: LU99A
# Method in brief: as §1
smiles,measurement,setting,value
CCCCCCCCCCCC1=C(O)C(=O)C=C(O)C1=O [Embelin] + CC(=O)c1c(C)c2cnc(Nc3ccc(N4CCNCC4)cn3)nc2n(C2CCCC2)c1=O [Palbociclib] (partner 0.5 µM),relative viability,[1]; first compound 0.08 µM,0.486
same,relative viability,[1]; first compound 0.8 µM,0.545
same,relative viability,[1]; first compound 2.53 µM,0.486
same,relative viability,[1]; first compound 8 µM,0.481
same,relative viability,[2]; first compound 0.08 µM,0.411
same,relative viability,[2]; first compound 0.8 µM,0.432
same,relative viability,[2]; first compound 2.53 µM,0.466
same,relative viability,[2]; first compound 8 µM,0.394
same,relative viability,[3]; first compound 0.08 µM,0.625
same,relative viability,[3]; first compound 0.8 µM,0.719
same,relative viability,[3]; first compound 2.53 µM,0.723
same,relative viability,[3]; first compound 8 µM,0.766
same,relative viability,[4]; first compound 0.08 µM,0.184
same,relative viability,[4]; first compound 0.8 µM,0.215
same,relative viability,[4]; first compound 2.53 µM,0.262
same,relative viability,[4]; first compound 8 µM,0.242
same,relative viability,[5]; first compound 0.08 µM,0.551
same,relative viability,[5]; first compound 0.8 µM,0.556
same,relative viability,[5]; first compound 2.53 µM,0.542
same,relative viability,[5]; first compound 8 µM,0.52
same,relative viability,[6]; first compound 0.08 µM,0.657
same,relative viability,[6]; first compound 0.8 µM,0.701
same,relative viability,[6]; first compound 2.53 µM,0.693
same,relative viability,[6]; first compound 8 µM,0.661
same,relative viability,[7]; first compound 0.08 µM,0.366
same,relative viability,[7]; first compound 0.8 µM,0.374
same,relative viability,[7]; first compound 2.53 µM,0.321
same,relative viability,[7]; first compound 8 µM,0.297
same,relative viability,[8]; first compound 0.08 µM,0.506
same,relative viability,[8]; first compound 0.8 µM,0.486
same,relative viability,[8]; first compound 2.53 µM,0.511
same,relative viability,[8]; first compound 8 µM,0.461
same,relative viability,[9]; first compound 0.08 µM,1.15
same,relative viability,[9]; first compound 0.8 µM,1.15
same,relative viability,[9]; first compound 2.53 µM,1.24
same,relative viability,[9]; first compound 8 µM,0.979
same,relative viability,[10]; first compound 0.08 µM,0.647
same,relative viability,[10]; first compound 0.8 µM,0.753
same,relative viability,[10]; first compound 2.53 µM,0.806
same,relative viability,[10]; first compound 8 µM,0.702
same,relative viability,[11]; first compound 0.08 µM,0.511
same,relative viability,[11]; first compound 0.8 µM,0.547
same,relative viability,[11]; first compound 2.53 µM,0.536
same,relative viability,[11]; first compound 8 µM,0.485
same,relative viability,[12]; first compound 0.08 µM,0.435
same,relative viability,[12]; first compound 0.8 µM,0.399
same,relative viability,[12]; first compound 2.53 µM,0.405
same,relative viability,[12]; first compound 8 µM,0.439
same,relative viability,[13]; first compound 0.08 µM,0.644
same,relative viability,[13]; first compound 0.8 µM,0.576
same,relative viability,[13]; first compound 2.53 µM,0.668
same,relative viability,[13]; first compound 8 µM,0.549
same,relative viability,[14]; first compound 0.08 µM,0.133
same,relative viability,[14]; first compound 0.8 µM,0.161
same,relative viability,[14]; first compound 2.53 µM,0.141
same,relative viability,[14]; first compound 8 µM,0.131
same,relative viability,[15]; first compound 0.08 µM,0.346
same,relative viability,[15]; first compound 0.8 µM,0.405
same,relative viability,[15]; first compound 2.53 µM,0.381
same,relative viability,[15]; first compound 8 µM,0.306
same,relative viability,[16]; first compound 0.08 µM,0.342
same,relative viability,[16]; first compound 0.8 µM,0.342
same,relative viability,[16]; first compound 2.53 µM,0.345
same,relative viability,[16]; first compound 8 µM,0.339
same,relative viability,[17]; first compound 0.08 µM,0.361
same,relative viability,[17]; first compound 0.8 µM,0.328
same,relative viability,[17]; first compound 2.53 µM,0.358
same,relative viability,[17]; first compound 8 µM,0.324
same,relative viability,[18]; first compound 0.08 µM,0.358
same,relative viability,[18]; first compound 0.8 µM,0.406
same,relative viability,[18]; first compound 2.53 µM,0.38
same,relative viability,[18]; first compound 8 µM,0.354
same,relative viability,[19]; first compound 0.08 µM,0.236
same,relative viability,[19]; first compound 0.8 µM,0.227
same,relative viability,[19]; first compound 2.53 µM,0.266
same,relative viability,[19]; first compound 8 µM,0.248
same,relative viability,[20]; first compound 0.08 µM,0.347
same,relative viability,[20]; first compound 0.8 µM,0.349
same,relative viability,[20]; first compound 2.53 µM,0.392
same,relative viability,[20]; first compound 8 µM,0.346
same,relative viability,[21]; first compound 0.08 µM,0.344
same,relative viability,[21]; first compound 0.8 µM,0.498
same,relative viability,[21]; first compound 2.53 µM,0.37
same,relative viability,[21]; first compound 8 µM,0.422
same,relative viability,[22]; first compound 0.08 µM,1.09
same,relative viability,[22]; first compound 0.8 µM,1.21
same,relative viability,[22]; first compound 2.53 µM,1.01
same,relative viability,[22]; first compound 8 µM,0.983
same,relative viability,[23]; first compound 0.08 µM,0.514
same,relative viability,[23]; first compound 0.8 µM,0.446
same,relative viability,[23]; first compound 2.53 µM,0.558
same,relative viability,[23]; first compound 8 µM,0.48
same,relative viability,[24]; first compound 0.08 µM,0.471
same,relative viability,[24]; first compound 0.8 µM,0.411
same,relative viability,[24]; first compound 2.53 µM,0.394
same,relative viability,[24]; first compound 8 µM,0.374
